Experiments:
[1] = target: T1, Estrogen receptor (Ovis aries) (UniProt P49885+Q9TU15)
[2] = target: T1, Estrogen receptor (Ovis aries); remark: listed apart in the source
[3] = target: T1, Estrogen receptor (Ovis aries); remark: listed apart in the source

SMILES | RAC app [1] | RAC app [2] | RAC app [3]
C[C@]12CC[C@@H]3c4ccc(O)cc4CC[C@H]3[C@@H]1CC[C@@]2(O)CCCOC(=O)CBr | 0.21 | 0.94 | 0.021
C[C@]12CC[C@@H]3c4ccc(O)cc4CC[C@H]3[C@@H]1CC[C@@]2(O)C#CCCO | 1 | 3.9 | 0.07
C[C@]12CC[C@@H]3c4ccc(O)cc4CC[C@H]3[C@@H]1CC[C@@]2(O)C#CCCCCCCO | 3.4 | 6.5 | 0.4
C[C@]12CC[C@@H]3c4ccc(O)cc4CC[C@H]3[C@@H]1CC[C@@]2(O)CC1CO1 (stereo in doubt; 6b) | 0.2 | 3.9 | < 0.017
C[C@]12CC[C@@H]3c4ccc(O)cc4CC[C@H]3[C@@H]1CC[C@@]2(O)C#CCCCCCCOC(=O)CBr | 1.5 | 2.4 | 0.24
C[C@]12CC[C@@H]3c4ccc(O)cc4CC[C@H]3[C@@H]1CC[C@@]2(O)CC1CO1 (stereo in doubt; 6a) | 1.3 | 12 | 0.044
C[C@]12CC[C@@H]3c4ccc(O)cc4CC[C@H]3[C@@H]1CC[C@@]2(O)C#CCCOC(=O)CBr | 0.79 | 2 | 0.066
C[C@]12CC[C@@H]3c4ccc(O)cc4CC[C@H]3[C@@H]1CC[C@@]2(O)CCCO | 0.28 | 1.1 | 0.024

Reference: ChEMBL document CHEMBL1126840, “Steroidal affinity labels of the estrogen receptor. 1. 17 alpha-(Bromoacetoxy)alkyl/alkynylestradiols” (J Med Chem, 1993)
